In patent publication US12076357B2, “Preparations containing berry extracts for use in the prophylaxis and/or treatment of viral infections caused by Paramyxoviridae” (Evonik Operations GmbH, priority 2019, dated 2024):

Test system: GFP-encoding measles virus
Assay: Measles virus replication, infected cells counted with PerkinElmer Ensight system (Part II)
Conditions: 75 μg/mL, quadruplets
Procedure: Vero-Slam cells were incubated with decreasing concentration of the solubilized test compounds. All concentrations were analyzed on three independent six-well plates or by independent six replicates on a black 96well plate (PerkinElmer). Cells were infected with GFP-encoding wild-type measles virus and incubated for two days. […] Part II: Two days after infection measles virus-infected cells and GFP expressing cells were directly counted using the PerkinElmer Ensight system with optical cell culture plates. The instrument was controlled by manual counting. Viral titers were calculated as infectious particles per mL.
However, in contrast to the previous experiments, infected cells were counted with the PerkinElmer Ensight system, since this system allows to quantify changes in viral titers on single cell level.
However, only non-toxic compound concentrations were applied.
The cells were subsequently infected with GFP-encoding measles virus, and GFP expressing cells were quantified with the Perkin Elmer Ensight reader. All infections were performed in triplicate assays.

C[C@@H]1O[C@@H](OC[C@H]2O[C@@H](Oc3cc4c(O)cc(O)cc4[o+]c3-c3cc(O)c(O)c(O)c3)[C@H](O)[C@@H](O)[C@@H]2O)[C@H](O)[C@H](O)[C@H]1O [D3R, delphinidin 3-rutinoside]
number of infected cells: reduced the number of infected cells
